Where a name gives a salt, the structure may show the parent alone.

By melting point is commonly meant the temperature of the solid-liquid transition. A word on the EC50: it is the concentration giving half of the maximal effect. A low value points to greater potency. Usually maximal fold induction stands for the signal under treatment as a multiple of the control signal.

In data set [1] the test system is translational stop codon read-through, human SMN2 open reading frame-luciferase. The data set is described as follows: Translational read-through luciferase reporter assay (luciferase preceded by the open reading frame of the human SMN2 gene). It counts as cell-based. An excerpt:
This assay was similar in design to that described in WO 01/44516 A2. This was a cell-based luciferase reporter assay designed to detect translational read-through via insertion of a translational stop codon within the coding sequence that includes luciferase. In the presence of compounds that promote read-through of translational stop codons, active luciferase was produced and detected via chemiluminescence. Compounds of the invention typically were active in three versions of this assay: luciferase reporter containing a UGA stop codon, luciferase reporter containing a UAG stop codon, which is the first stop codon downstream of the improper splice junction between exons 6 and 8 in the human SMN2 transcript, and luciferase preceded by the open reading frame of the human SMN2 gene.
Background: In a reporter assay the amount or activity of a reporter protein is the signal.

The test system of data set [2] is SMN2-linked luciferase-reporter gene construct. Put plainly: SMN Splice Reporter Assay (SMN2-linked luciferase reporter). As to conditions: for EC50: cervical carcinoma cell lines, SMN2 splice luciferase reporter; for Fold Increase: fold-increase of luciferase over baseline reading of transformed cells without any test compound. It counts as cell-based. The method in brief:
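Cervical carcinoma cells carrying an SMN2-luciferase splicing reporter, in-frame only with exon 7 inclusion, were treated with compound. Luciferase activity reported as fold increase over untreated transformed cells, with EC50 derived.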

As to `COc1ccc2c(c1)C(=O)N(c1ccc3cnn(C)c3c1)C2`, the melting point was 175 to 177 °C.

On to `COc1ccc2c(c1)C(=O)N(c1ccc3ccn(CCN)c3c1)C2` (as salt: hydrochloride) [Example 23, 2-(1-(2-aminoethyl)-1H-indol-6-yl)-6-methoxyisoindolin-1-one hydrochloride], for which the melting point is 280 to 282 °C (dec.).

The compound `COc1ccc2c(c1)C(=O)N(c1ccc3c(ccn3C)c1)C2` [Example 1, 6-methoxy-2-(1-methyl-1H-indol-5-yl)isoindolin-1-one] displayed a melting point of 193 to 197 °C.

The compound `Cn1ccc2cc(N3Cc4ccc(OC(F)F)cc4C3=O)ccc21` [Example 2, 6-(difluoromethoxy)-2-(1-methyl-1H-indol-5-yl)isoindolin-1-one] showed a melting point of 180 to 182 °C.

Turning to `Cn1ccc2cc(N3Cc4ccc(OC(F)(F)Br)cc4C3=O)ccc21` [Example 3, 6-(bromodifluoromethoxy)-2-(1-methyl-1H-indol-5-yl)isoindolinl-one], the melting point was in the range of 185 to 186 °C.

`Cn1ccc2cc(N3Cc4ccc(OC(F)(F)C(F)Cl)cc4C3=O)ccc21` (centres unmarked) [Example 4, 6-(2-chloro-1,1,2-trifluoroethoxy)-2-(1-methyl-1H-indol-5-yl)isoindolin-1-one] registered a melting point of 200 to 205 °C.

Take `Cn1ccc2cc(N3Cc4ccc(O)cc4C3=O)ccc21` [Example 5, 6-hydroxy-2-(1-methyl-1H-indol-5-yl)isoindolin-1-one]: the melting point was 230 to 235 °C.

Consider `CCOc1ccc2c(c1)C(=O)N(c1ccc3c(ccn3C)c1)C2` [Example 6, 6-ethoxy-2-(1-methyl-1H-indol-5-yl)isoindolin-1-one], for which the melting point was in the range of 185 to 190 °C.

For `Cn1ccc2cc(N3Cc4ccc(OCC(F)(F)F)cc4C3=O)ccc21` [Example 7, 2-(1-methyl-1H-indol-5-yl)-6-(2,2,2-trifluoroethoxy)isoindolin-1-one], the melting point lay within 182 to 188 °C.

In turn, `CC(=O)Nc1ccc2c(c1)C(=O)N(c1ccc3c(ccn3C)c1)C2` [Example 8, N-(2-(1-methyl-1H-indol-5-yl)-3-oxoisoindolin-5-yl)acetamide] showed a melting point of 275 to 280 °C.

In turn, `Cn1ccc2cc(N3Cc4c(N)cccc4C3=O)ccc21` [Example 9, 4-amino-2-(1-methyl-1H-indol-5-yl)isoindolin-1-one] gave a melting point of 198 to 203 °C.

On to `CC(=O)Nc1cccc2c1CN(c1ccc3c(ccn3C)c1)C2=O` [Example 10, N-(2-(1-methyl-1H-indol-5-yl)-1-oxoisoindolin-4-yl)acetamide], for which the melting point lay in the range of 239 to 243 °C.

The compound `Cn1ccc2cc(N3Cc4ccc(Br)cc4C3=O)ccc21` [Example 11, 6-bromo-2-(1-methyl-1H-indol-5-yl)isoindolin-1-one] gave a melting point of 235 to 237 °C.

`CC(C)Cc1ccc2c(c1)C(=O)N(c1ccc3c(ccn3C)c1)C2` [Example 12, 6-isobutyl-2-(1-methyl-1H-indol-5-yl)isoindolin-1-one]: the melting point was 193 to 194 °C.

Turning to `CCCCc1ccc2c(c1)C(=O)N(c1ccc3c(ccn3C)c1)C2` [Example 13, 6-butyl-2-(1-methyl-1H-indol-5-yl)isoindolin-1-one], the melting point lay in the range of 167 to 168 °C.

In turn, `C/C=C(/C)c1ccc2c(c1)C(=O)N(c1ccc3c(ccn3C)c1)C2` [Example 14, (Z)-6-(but-2-en-2-yl)-2-(1-methyl-1H-indol-5-yl)isoindolin-1-one] displayed a melting point of 144 to 145 °C.

`CCC(C)c1ccc2c(c1)C(=O)N(c1ccc3c(ccn3C)c1)C2` (centres unmarked) [Example 15, 6-sec-butyl-2-(1-methyl-1H-indol-5-yl)isoindolin-1-one] gave a melting point of 146 to 147 °C.

With `Cn1ccc2cc(N3Cc4ccc(N5CCCC5)cc4C3=O)ccc21` [Example 16, 2-(1-methyl-1H-indol-5-yl)-6-(pyrrolidin-1-yl)isoindolin-1-one], the melting point was 252 to 253 °C.

With `COc1ccc2c(c1)C(=O)N(c1ccc3c(ccn3C(C)C)c1)C2` [Example 17, 2-(1-isopropyl-1H-indol-5-yl)-6-methoxyisoindolin-1-one], the melting point was 144 to 148 °C.

Regarding `COc1ccc2c(c1)C(=O)N(c1ccc3c(c1)cc(C)n3C)C2` [Example 18, 2-(1,2-dimethyl-1H-indol-5-yl)-6-methoxyisoindolin-1-one], the melting point was 209 to 213 °C.

Turning to `COc1ccc2c(c1)CN(c1ccc3c(ccn3C)c1)C2` [Example 19, 5-(5-methoxyisoindolin-2-yl)-1-methyl-1H-indole], the melting point was in the range of 193 to 196 °C.

As to `COc1ccc2c(c1)C(=O)N(c1ccc3ccn(C)c3c1)C2` [Example 20, 6-methoxy-2-(1-methyl-1H-indol-6-yl)isoindolin-1-one], the melting point lay in the range of 158 to 161 °C.

For the compound `CC(=O)Nc1cccc2c1CN(c1ccc3ccn(C)c3c1)C2=O` [Example 21, N-(2-(1-methyl-1H-indol-6-yl)-1-oxoisoindolin-4-yl)acetamide], the melting point was in the range of 180 to 184 °C.

Turning to `COc1ccc2c(c1)C(=O)N(c1ccc3ccn(CC#N)c3c1)C2` [Example 22, 2-(6-(6-methoxy-1-oxoisoindolin-2-yl)-1H-indol-1-yl)acetonitrile], the melting point is 218 to 220 °C.

`Cn1ccc2ccc(N3Cc4ccc(-c5cccnc5)cc4C3=O)cc21` [Example 24, 2-(1-methyl-1H-indol-6-yl)-6-(pyridin-3-yl)isoindolin-1-one] came in with a melting point of 187 to 188 °C.

For `COc1ccc2c(c1)CN(c1ccc3sccc3c1)C2=O` [Example 25, 2-(benzo[b]thiophen-5-yl)-5-methoxyisoindolin-1-one], the melting point is 183 to 186 °C.

For `O=C1c2cc(O)ccc2CN1c1ccc2sccc2c1` [Example 26, 2-(benzo[b]thiophen-5-yl)-6-hydroxyisoindolin-1-one], the melting point was in the range of 226 to 228 °C.

Turning to `CCOc1ccc2c(c1)C(=O)N(c1ccc3sccc3c1)C2` [Example 27, 2-(benzo[b]thiophen-5-yl)-6-ethoxyisoindolin-1-one], the melting point was 127 to 129 °C.

Compound `Nc1ccc2c(c1)C(=O)N(c1ccc3ccsc3c1)C2` [Example 29, 6-amino-2-(benzo[b]thiophen-6-yl)isoindolin-1-one] displayed a melting point of 233 to 236 °C.

With `CN(C)c1ccc2c(c1)C(=O)N(c1ccc3ccsc3c1)C2` [Example 30, 2-(benzo[b]thiophen-6-yl)-6-(dimethylamino)isoindolin-1-one], the melting point lay in the range of 195 to 197 °C.

The compound `CN(C)c1ccc2c(c1)C(=O)N(c1ccc3c(c1)CCN3C)C2` [Example 31, 6-(dimethylamino)-2-(1-methylindolin-5-yl)isoindolin-1-one] returned a melting point of 268 to 270 °C.

`COc1ccc2c(c1)C(=O)N(c1ccc3ncccc3c1)C2` [Example 32, 6-methoxy-2-(quinolin-6-yl)isoindolin-1-one]: the melting point fell in the range of 194 to 197 °C.

Take `COc1ccc2c(c1)C(=O)N(c1ccc3c(ccc[n+]3[O-])c1)C2` [Example 33, 6-(6-methoxy-1-oxoisoindolin-2-yl)quinoline 1-oxide]: the melting point fell in the range of 251 to 255 °C.

In data set [1], `COc1ccc2c(c1)C(=O)N(c1ccc3nccn3c1)C2` [Example 120955] registered an EC50 of 14100 nM and a maximal fold induction of 1.66. Moreover, in data set [2], the EC50 came to 1590 nM and the “Fold Increase” value is reported as 1.265.

In data set [1], `CC(C)n1ccc2cc(N3Cc4ccc(OC(F)F)cc4C3=O)ccc21` [Example 121259] yielded a 50% effective concentration (EC50) of 32 nM and a maximal fold induction of 1.03. In data set [2], the “Fold Increase” value was 1.166.

For the compound `COc1ccc2c(c1)C(=O)N(c1ccc3nc(C)ncc3c1)C2` [Example 121924], in data set [1], the EC50 was 2650 nM and the maximal fold induction was 1.66. Further, in data set [2], the concentration giving a half-maximal response (EC50) was 1360 nM and the “Fold Increase” value is 1.489.

Regarding `CC(=O)Nc1ccc2c(c1)C(=O)N(c1ccc3c(ccn3C)c1)C2` [Example 122435], in data set [1], the response was half-maximal at 1290 nM (EC50) and the maximal fold induction turned out to be 1.98. In data set [2], the EC50 amounted to 143 nM and the “Fold Increase” value stood at 1.412.

Regarding `COc1ccc2c(c1)C(=O)N(c1ccc3sc(C)cc3c1)C2` [Example 122685], in data set [1], the EC50 is 667 nM and the maximal fold induction was determined as 1.87. Also, in data set [2], the EC50 turned out to be 24 nM and the “Fold Increase” value was 1.251.

In data set [1], `Cc1cc2cc(N3Cc4ccc(Br)cc4C3=O)ccc2n1C` [Example 122818] gave an EC50 of 12800 nM and a maximal fold induction of 1.81. Besides, in data set [2], the EC50 was 207 nM and the “Fold Increase” value came to 1.551.

In data set [1], `Cc1cc2cc(N3Cc4ccc(N5CCCC5)cc4C3=O)ccc2n1C` [Example 123330] showed a maximal fold induction of 1.4. For the same compound, in data set [2], the “Fold Increase” value was 1.113.

In the case of `Cc1cc2cc(N3Cc4ccc(OC(C)C)cc4C3=O)ccc2n1C` [Example 123934], in data set [1], the EC50 was 97700 nM and the maximal fold induction worked out at 1.3. Also, in data set [2], it took 63 nM to reach a half-maximal effect (EC50) and the “Fold Increase” value came to 1.554.

In data set [1], `CC(C)n1ccc2cc(N3Cc4ccc(Cl)cc4C3=O)ccc21` [Example 125094] registered a maximal fold induction of 1.16. Also, in data set [2], a half-maximal effect (EC50) was put at 9 nM and the “Fold Increase” value is 1.256.

In data set [1], `CC(C)n1ccc2cc(N3Cc4ccc(Br)cc4C3=O)ccc21` [Example 125270] displayed a maximal fold induction of 1.19. In addition, in data set [2], a half-maximal effect (EC50) was put at 16 nM and the “Fold Increase” value is on record as 1.446.

Source of the values: patent US20100267712A1, “ISOINDOLINE COMPOUNDS FOR THE TREATMENT OF SPINAL MUSCULAR ATROPHY AND OTHER USES” (The United States of America, as represented by the …, priority 2007, published 2010).
